Data taken from ChEMBL document CHEMBL1201862, “PubChem BioAssay data set” (2004).
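Method: 48-hour compound exposure of cells in 96-well plates, five concentrations, linear interpolation of endpoints. The concentration for 50% growth inhibition is given as GI50.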 Active and inactive are the calls of the source. Rule as the data show it: active = GI50 up to about 1.1 µM and inactive = higher.

Key:
Assay in all cases: NCI anticancer screen, dose series, 48 h
[1] = test system: SNB-19
[2] = test system: ACHN
[3] = test system: OVCAR-8
[4] = test system: HT-29
[5] = test system: IGROV-1
[6] = test system: HOP-92
[7] = test system: HCT-15
[8] = test system: HOP-62
[9] = test system: OVCAR-3
[10] = test system: COLO 205
[11] = test system: HCC 2998
[12] = test system: NCI-H460
[13] = test system: Malme-3M
[14] = test system: MOLT-4
[15] = test system: RXF 393
[16] = test system: SR

| Structure (SMILES) | GI50 [1] | GI50 [2] | GI50 [3] | GI50 [4] | GI50 [5] | GI50 [6] | GI50 [7] [µM] | GI50 [8] | GI50 [9] | GI50 [10] | GI50 [11] | GI50 [12] | GI50 [13] | GI50 [14] | GI50 [15] | GI50 [16] |
| --- | --- | --- | --- | --- | --- | --- | --- | --- | --- | --- | --- | --- | --- | --- | --- | --- |
| O=C(/C=C/c1ccccc1O)c1ccccc1O | > 100 µM (inactive) | > 100 µM (inactive) | > 100 µM (inactive) | > 100 µM (inactive) | > 100 µM (inactive) | 46.7 µM (inactive) | 35.9 | > 100 µM (inactive) | > 100 µM (inactive) | > 100 µM (inactive) | > 100 µM (inactive) | > 100 µM (inactive) | > 100 µM (inactive) | 18.7 µM (inactive) | > 100 µM (inactive) | – |
| COC(=O)C[C@H]1CCC2(OCCO2)[C@]1(C)C(=O)OC | > 100 µM (inactive) | > 100 µM (inactive) | > 100 µM (inactive) | > 100 µM (inactive) | > 100 µM (inactive) | > 100 µM (inactive) | > 100 | > 100 µM (inactive) | > 100 µM (inactive) | > 100 µM (inactive) | – | > 100 µM (inactive) | > 100 µM (inactive) | > 100 µM (inactive) | > 100 µM (inactive) | – |
| CN(C)CCC(=O)/C=C\c1ccccc1 | 39.2 µM (inactive) | 18.2 µM (inactive) | 18.1 µM (inactive) | 19.5 µM (inactive) | 24.5 µM (inactive) | 16.6 µM (inactive) | 16.1 | 67.3 µM (inactive) | 18.2 µM (inactive) | 15.8 µM (inactive) | – | 18.9 µM (inactive) | 17.1 µM (inactive) | 13.5 µM (inactive) | 15.6 µM (inactive) | 15 µM (inactive) |
| CC(C)(CN1CCCCC1)C(=O)/C=C/c1ccc(Br)cc1 | 2.01 µM (inactive) | 3.4 µM (inactive) | 2.39 µM (inactive) | 3.1 µM (inactive) | 2.79 µM (inactive) | 0.875 µM (active) | – | 3.85 µM (inactive) | 2.07 µM (inactive) | 2.25 µM (inactive) | 16.5 µM (inactive) | – | 5.74 µM (inactive) | 2.28 µM (inactive) | 1.35 µM (inactive) | 2.45 µM (inactive) |
| COc1ccc([C@@H]2CC(=O)NCCCCNCCCN2)cc1 | > 100 µM (inactive) | > 100 µM (inactive) | > 100 µM (inactive) | > 100 µM (inactive) | > 100 µM (inactive) | > 100 µM (inactive) | > 100 | > 100 µM (inactive) | – | > 100 µM (inactive) | 0.0131 µM (active) | > 100 µM (inactive) | > 100 µM (inactive) | > 100 µM (inactive) | > 100 µM (inactive) | > 100 µM (inactive) |
| CC1(C)OC2C(CCP(=O)(O)O)OC(c3nc(C(N)=O)cs3)C2O1 (configuration not stated) | > 100 µM (inactive) | > 100 µM (inactive) | > 100 µM (inactive) | > 100 µM (inactive) | > 100 µM (inactive) | > 100 µM (inactive) | > 100 | – | – | > 100 µM (inactive) | > 100 µM (inactive) | > 100 µM (inactive) | > 100 µM (inactive) | > 100 µM (inactive) | > 100 µM (inactive) | – |
| C[C@]12CC[C@H](OC(=O)Cc3ccc(N(CCCl)CCCl)cc3)CC1CC[C@@H]1C2CC[C@]2(C)NC(=O)CCC12 (some centres not stated) | 13 µM (inactive) | 4.04 µM (inactive) | > 10 µM (inactive) | 1.87 µM (inactive) | 14 µM (inactive) | 15.6 µM (inactive) | 13.9 | > 10 µM (inactive) | 4.04 µM (inactive) | 5.4 µM (inactive) | 18.7 µM (inactive) | 5.16 µM (inactive) | 15.8 µM (inactive) | 3.08 µM (inactive) | 7.74 µM (inactive) | – |
| CCCCCCCCCCCCCC(=O)OCC1OC(n2cc(F)c(=O)[nH]c2=O)C(N)C(OC(=O)CCCCCCCCCCCCC)C1O (configuration not stated) | > 100 µM (inactive) | > 100 µM (inactive) | > 100 µM (inactive) | > 100 µM (inactive) | – | > 100 µM (inactive) | > 100 | > 100 µM (inactive) | > 100 µM (inactive) | > 100 µM (inactive) | > 100 µM (inactive) | > 100 µM (inactive) | > 100 µM (inactive) | > 100 µM (inactive) | > 100 µM (inactive) | > 100 µM (inactive) |
| CC1=NN(C(=O)CC(=O)N(C(=O)c2ccccc2Cl)c2ccc(C)cc2)C(=O)C1/N=N/c1ccc([N+](=O)[O-])cc1 (configuration not stated) | 53.1 µM (inactive) | > 53.7 µM (inactive) | 27.9 µM (inactive) | > 63.4 µM (inactive) | 56.2 µM (inactive) | 36.6 µM (inactive) | > 43.8 | 53.5 µM (inactive) | > 64.7 µM (inactive) | > 43.6 µM (inactive) | > 100 µM (inactive) | > 47.3 µM (inactive) | > 100 µM (inactive) | > 100 µM (inactive) | 23.4 µM (inactive) | > 100 µM (inactive) |
| O=C(Cc1ccccc1)NN1C(=O)C(Cl)C1c1cc(Br)ccc1O (configuration not stated) | 10.4 µM (inactive) | 2.76 µM (inactive) | 3.87 µM (inactive) | 7.64 µM (inactive) | 7.71 µM (inactive) | – | 3.65 | 2.65 µM (inactive) | 2.56 µM (inactive) | 14.1 µM (inactive) | 9.46 µM (inactive) | 2.2 µM (inactive) | 13.5 µM (inactive) | 1.04 µM (active) | 19.1 µM (inactive) | 1.56 µM (inactive) |
